Reference: PubChem BioAssay AID248 (DTP/NCI, 2004)
Values joined by “and” are separate entries in the source; they are usually repeats but may differ in a detail not shown here. Equal entries are not always repeated. Inconclusive results and toxic doses are left out. Cut-off read from the data, not from the text of the source: active = T/C of 150% or more; inactive = T/C below 125%.

Test system: L1210 leukemia ip in BDF1 mice, survival T/C
Assay: NCI In Vivo Anticancer Drug Screen. Data for tumor model L1210 Leukemia (intraperitoneal) in B6D2F1 (BDF1) mice
Settings: endpoint: mean survival time, higher = longer survival
Method in brief: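 Read-out is survival time, reported as the treated-group measurement over the vehicle-control measurement.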

[1] = dose: 100.0 mg/kg/injection, schedule: Q01DX009 (ip), vehicle: saline
[2] = dose: 200.0 mg/kg/injection, schedule: Q01DX009 (ip), vehicle: saline
[3] = dose: 400.0 mg/kg/injection, schedule: Q01DX009 (ip), vehicle: saline
[4] = dose: 50.0 mg/kg/injection, schedule: Q01DX001 (ip), vehicle: saline
[5] = dose: 100.0 mg/kg/injection, schedule: Q01DX001 (ip), vehicle: saline
[6] = dose: 200.0 mg/kg/injection, schedule: Q01DX001 (ip), vehicle: saline
[7] = dose: 400.0 mg/kg/injection, schedule: Q01DX001 (ip), vehicle: saline
[8] = dose: 25.0 mg/kg/injection, schedule: Q04DX003 (ip), vehicle: Klucel (hydroxypropylcellulose) (HPC)
[9] = dose: 50.0 mg/kg/injection, schedule: Q04DX003 (ip), vehicle: Klucel (hydroxypropylcellulose) (HPC)
[10] = dose: 100.0 mg/kg/injection, schedule: Q04DX003 (ip), vehicle: Klucel (hydroxypropylcellulose) (HPC)
[11] = dose: 100.0 mg/kg/injection, schedule: Q01DX009 (ip), vehicle: Klucel (hydroxypropylcellulose) (HPC)
[12] = dose: 200.0 mg/kg/injection, schedule: Q01DX009 (ip), vehicle: Klucel (hydroxypropylcellulose) (HPC)
[13] = dose: 200.0 mg/kg/injection, schedule: Q04DX003 (ip), vehicle: Klucel (hydroxypropylcellulose) (HPC)
[14] = dose: 400.0 mg/kg/injection, schedule: Q01DX009 (ip), vehicle: Klucel (hydroxypropylcellulose) (HPC)
[15] = dose: 400.0 mg/kg/injection, schedule: Q04DX003 (ip), vehicle: Klucel (hydroxypropylcellulose) (HPC)
[16] = dose: 100.0 mg/kg/injection, schedule: Q01DX009 (ip), vehicle: saline with Tween-80

Measured: T/C

O=C(O)/C(Cc1cn[nH]n1)=N\O
inactive: dose: 100.0 mg/kg/injection, schedule: Q01DX001 (ip), vehicle: other 95 % of control | dose: 200.0 mg/kg/injection, schedule: Q01DX001 (ip), vehicle: other 101 % of control | dose: 400.0 mg/kg/injection, schedule: Q01DX001 (ip), vehicle: other 101 % of control

Cc1[nH]nc(C(F)(F)F)c1N=NN1CCC(C(N)=O)CC1
inactive: dose: 75.0 mg/kg/injection, schedule: Q01DX001 (ip), vehicle: carboxymethylcellulose (CMC) 95 % of control

CCCCCCCCC(O)CCC (stereo not drawn)
inactive: [1] 102 % of control | [2] 105 % of control | [3] 102 % of control

CCCCn1c(C)nc2c(NN=C(N)N)c3ccccc3c(N=NC(=N)N)c21
inactive: dose: 7.5 mg/kg/injection, schedule: Q01DX Z (oral), vehicle: carboxymethylcellulose (CMC) 102 % of control | dose: 15.0 mg/kg/injection, schedule: Q01DX Z (ip), vehicle: carboxymethylcellulose (CMC) 95 % of control | dose: 15.0 mg/kg/injection, schedule: Q01DX Z (oral), vehicle: carboxymethylcellulose (CMC) 104 % of control | dose: 30.0 mg/kg/injection, schedule: Q01DX Z (oral), vehicle: carboxymethylcellulose (CMC) 98 % of control | dose: 60.0 mg/kg/injection, schedule: Q01DX Z (oral), vehicle: carboxymethylcellulose (CMC) 98 % of control

Cn1ncc(C#N)c1N
inactive: [4] 98 % of control | [5] 110 % of control | dose: 100.0 mg/kg/injection, schedule: Q04DX002 (ip), vehicle: Klucel (hydroxypropylcellulose) (HPC) 98 % of control | [6] 95 % of control | dose: 200.0 mg/kg/injection, schedule: Q04DX002 (ip), vehicle: Klucel (hydroxypropylcellulose) (HPC) 91 % of control | [7] 95 % of control | dose: 400.0 mg/kg/injection, schedule: Q04DX002 (ip), vehicle: Klucel (hydroxypropylcellulose) (HPC) 100 % of control

CC(C)C(C#N)(CCCCN1CCOCC1)c1cccc2ccccc12 (stereo not drawn)
inactive: [8] 93 % of control | [9] 103 % of control | [10] 92 % of control

Cc1ccc(C(=O)/C(=C/c2ccccc2)c2ccccc2)cc1
inactive: [11] 101 % of control | [10] 96 % of control | [12] 97 % of control | [13] 93 % of control | [14] 88 % of control | [15] 96 % of control

O=C(C[n+]1ccccc1Br)c1cccc2ccccc12
inactive: dose: 9.38 mg/kg/injection, schedule: Q01DX001 (ip), vehicle: other 103 % of control

O=C(c1ccccc1)C(Cl)C(=O)c1ccccc1
inactive: dose: 12.5 mg/kg/injection, schedule: Q04DX003 (ip), vehicle: Klucel (hydroxypropylcellulose) (HPC) 94 % of control | [8] 115 % of control | [9] 96 % of control | dose: 100.0 mg/kg/injection, schedule: Q01DX001 (ip), vehicle: Klucel (hydroxypropylcellulose) (HPC) 98 % of control | [10] 100 % of control | dose: 200.0 mg/kg/injection, schedule: Q01DX001 (ip), vehicle: Klucel (hydroxypropylcellulose) (HPC) 97 % of control | dose: 400.0 mg/kg/injection, schedule: Q01DX001 (ip), vehicle: Klucel (hydroxypropylcellulose) (HPC) 95 % of control

COC(=O)COc1ccc(Cl)cc1Cl
inactive: dose: 100.0 mg/kg/injection, schedule: Q04DX002 (ip), vehicle: saline 100 % of control | dose: 200.0 mg/kg/injection, schedule: Q04DX002 (ip), vehicle: saline 107 % of control | dose: 400.0 mg/kg/injection, schedule: Q04DX002 (ip), vehicle: saline 100 % of control

OCC1OC(n2cnc3c2nnn2ccnc32)C(O)C1O (stereo not drawn)
inactive: dose: 12.5 mg/kg/injection, schedule: Q01DX009 (ip), vehicle: saline 98 % of control | dose: 12.5 mg/kg/injection, schedule: Q04DX002 (ip), vehicle: saline 108 % of control | dose: 25.0 mg/kg/injection, schedule: Q01DX009 (ip), vehicle: saline 101 % of control | dose: 25.0 mg/kg/injection, schedule: Q04DX002 (ip), vehicle: saline 108 % of control | dose: 50.0 mg/kg/injection, schedule: Q01DX009 (ip), vehicle: saline 98 % of control and 107 % of control and 123 % of control | dose: 50.0 mg/kg/injection, schedule: Q04DX002 (ip), vehicle: saline 104 % of control | dose: 75.0 mg/kg/injection, schedule: Q01DX009 (ip), vehicle: saline 100 % of control | dose: 100.0 mg/kg/injection, schedule: Q01DX005 (ip), vehicle: saline 114 % of control | [1] 115 % of control | dose: 115.0 mg/kg/injection, schedule: Q01DX009 (ip), vehicle: saline 104 % of control | dose: 170.0 mg/kg/injection, schedule: Q01DX009 (ip), vehicle: saline 112 % of control | dose: 200.0 mg/kg/injection, schedule: Q01DX005 (ip), vehicle: saline 107 % of control | [2] 120 % of control

Cc1ccc(NC(=O)Oc2cc(C)c(Cl)cc2C(C)C)cc1
inactive: [11] 98 % of control | [12] 96 % of control | [14] 100 % of control

CCCNC(=O)/C=C\C(=O)O
inactive: [5] 108 % of control | [1] 93 % of control | [6] 101 % of control | [2] 90 % of control | [7] 106 % of control | [3] 95 % of control

N#CC(C#N)=c1ccc(=C(C#N)C#N)cc1
inactive: dose: 25.0 mg/kg/injection, schedule: Q01DX009 (ip), vehicle: saline with Tween-80 91 % of control | [4] 94 % of control | dose: 50.0 mg/kg/injection, schedule: Q01DX009 (ip), vehicle: saline with Tween-80 89 % of control | [5] 103 % of control | [16] 91 % of control | [6] 103 % of control

COC(=O)C(=O)c1c(O)n(-c2ccccc2)c2ccccc12
inactive: [8] 101 % of control | [9] 101 % of control | [10] 98 % of control

C#CCON(C(=O)Nc1ccc(Cl)cc1)C(=O)c1ccc(OC)cc1
inactive: [10] 88 % of control | [13] 86 % of control | [15] 93 % of control

Cc1cc(=O)cc(C)n1C
inactive: [16] 96 % of control | dose: 200.0 mg/kg/injection, schedule: Q01DX009 (ip), vehicle: saline with Tween-80 100 % of control | dose: 400.0 mg/kg/injection, schedule: Q01DX009 (ip), vehicle: saline with Tween-80 92 % of control

C=CCOC(=O)C(=O)OCC=C
inactive: [16] 95 % of control

COc1cc([N+](=O)[O-])c2nc(Cl)ccc2c1
inactive: dose: 100.0 mg/kg/injection, schedule: Q01DX001 (ip), vehicle: carboxymethylcellulose (CMC) 100 % of control | dose: 200.0 mg/kg/injection, schedule: Q01DX001 (ip), vehicle: carboxymethylcellulose (CMC) 88 % of control | dose: 400.0 mg/kg/injection, schedule: Q01DX001 (ip), vehicle: carboxymethylcellulose (CMC) 97 % of control

CNC(=O)n1ncnc1N
inactive: dose: 100.0 mg/kg/injection, schedule: Q04DX003 (ip), vehicle: saline 94 % of control | dose: 200.0 mg/kg/injection, schedule: Q04DX003 (ip), vehicle: saline 96 % of control | dose: 400.0 mg/kg/injection, schedule: Q04DX003 (ip), vehicle: saline 97 % of control
